Experimental data taken from US20030175735A1, “Recombinant adenylcyclase and use thereof for screening molecules with proteolytic activity” (priority 2000, published 2003).

Experiments:
wild-type HIV protease [1] = biological target: wild-type HIV protease (Human immunodeficiency virus type 1 group M subtype B, UniProt P04585); type: cell-based
Experimental: (§1) The bacteria are cultured in Luria-Bertani (LB) liquid or agar (15 g/l agar) medium. Their ability to ferment sugars is tested on McConkey agar medium containing 1% of maltose (Miller, 1972, Experiments in Molecular Genetics, Cold Spring Harbor Lab. Press, Cold Spring Harbor, N.Y.). The antibiotics are used at the following concentrations: ampicillin: 100 μg/ml and kanamycin: 50 μg/ml. The protease inhibitors, indinavir (Crixivan, Merck) and saquinavir (Invirase, Roche) are dissolved, respectively, in ethanol and in water (final concentration 20 mM) and then diluted in the culture media at the concentrations indicated.
In order to test this system, a recombinant protein according to the invention, ACp5, into which is inserted, between amino acids 224 and 225 of the adenyl cyclase, the p5 cleavage site of the HIV protease, was generated. The plasmid expressing this protein (pKACp5, example 2) was cotransformed into an E. coli cya strain, with a compatible plasmid carrying or not carrying the wild-type HIV protease (pUCVIH or pUC19).

HIV protease mutant V2 [2] = assay: system in cis: phenotype of DHT1 with pKACV2; type: cell-based
Experimental: as §1
(§2) For this study, the B1, B3, V1 and V2 proteases are inserted between amino acids 224 and 225 of the adenyl cyclase and the chimeric proteins obtained are expressed in the DHT1 strain (plasmids pKACB1, pKACB3, pKACV1 and pKACV2).

HIV protease mutant B1 = conditions: modified protease B1
Text: (§3) The mutations are described relative to the amino acid sequence (1-99) of the reference virus protease (V: Val; I: Ile; M: Met; T: Thr; L: Leu and P: Pro). The level of resistance of the mutants corresponds to the relative increase (compared to the wild-type protease) in the concentration of inhibitors required to inhibit 50% of the viral replication.

wild-type HIV protease [3] = type: cell-based; conditions: for phenotype in the presence of inhibitor: Cya− in the absence of inhibitor
Experimental: as §1
A chimeric protein (ACPr) was therefore constructed (example 2), into which is inserted, between amino acids 224 and 225 of the adenyl cyclase, the HIV protease (99 residues) and its two cleavage sequences p5 and p6 (each one 8 amino acids) .

HIV protease mutant V1 = conditions: modified protease V1 (L63P)
Text: as §3

HIV protease mutant V2 [4] = conditions: modified protease V2 (L10I, L63P, L90M)
Text: as §3

HIV protease mutant B3 [5] = assay: system in cis: phenotype of DHT1 with pKACB3; type: cell-based
Experimental: as §1, §2

HIV protease mutant B3 [6] = conditions: modified protease B3 (M46I, V77I, V82T)
Text: as §3

HIV protease mutant V2 [7] = type: cell-based
Experimental: as §1
The DNA encoding the modified proteases was cloned into the vector of pUC19 (example 2) and the plasmids obtained were cotransformed with pKACp5 into the DHT1 strain. The phenotype of the transformed bacteria is observed on McConkey maltose medium containing or not containing protease inhibitors.

Row | SMILES | concentration needed for the bacteria to become Cya+ (wild-type HIV protease [1]) [µM] | phenotype on medium containing 20 μM of saquinavir (HIV protease mutant V2 [2]) | Resistance to inhibitor: relative increase (compared to the wild-type protease) in the concentration required to inhibit 50% of the viral replication (HIV protease mutant B1) [X] | phenotype on medium containing 20 μM of saquinavir (wild-type HIV protease [3]; pKACPr, system in cis) | phenotype at 10 μM (wild-type HIV protease [3]; pKACPr, system in cis, 10 μM saquinavir) | phenotype in the presence of inhibitor (wild-type HIV protease [3]; pKACPr, system in cis) | Resistance to inhibitor: relative increase (compared to the wild-type protease) in the concentration required to inhibit 50% of the viral replication (HIV protease mutant V1) [X] | Resistance to inhibitor: relative increase (compared to the wild-type protease) in the concentration required to inhibit 50% of the viral replication (HIV protease mutant V2 [4]) [X] | phenotype at 10 μM (HIV protease mutant B3 [5]; 10 μM saquinavir) | Resistance to inhibitor: relative increase (compared to the wild-type protease) in the concentration required to inhibit 50% of the viral replication (HIV protease mutant B3 [6]) [X] | concentration needed for the bacteria to become Cya+ (HIV protease mutant V2 [7]) [µM] | phenotype on medium containing 100 μM indinavir (HIV protease mutant V2 [2]) | concentration up to which the bacteria have a Cya− phenotype (wild-type HIV protease [3]) [µM] | phenotype on medium containing 100 μM indinavir (wild-type HIV protease [3]; pKACPr, system in cis) | concentration up to which the bacteria have a Cya− phenotype (HIV protease mutant B3 [5]) [µM]
1 | CC(C)(C)NC(=O)[C@@H]1C[C@@H]2CCCC[C@@H]2CN1C[C@@H](O)[C@H](Cc1ccccc1)NC(=O)[C@H](CC(N)=O)NC(=O)c1ccc2ccccc2n1 [saquinavir] | 10 | Cya^− | 1 | red colonies | red | Cya^+ | 1 | 53 | Cya^− | 3 | 20 |  |  |  | 
2 | CC(C)(C)NC(=O)[C@@H]1CN(Cc2cccnc2)CCN1C[C@@H](O)C[C@@H](Cc1ccccc1)C(=O)N[C@H]1c2ccccc2C[C@H]1O [indinavir] | 50 |  | 1 |  |  | Cya^+ | 1 | 4 |  | 13 | 50 | Cya^− | 50 | red colonies | 100
